Experimental data: ChEMBL document CHEMBL4130634, “Discovery of Reversible DNA Methyltransferase and Lysine Methyltransferase G9a Inhibitors with Antitumoral in Vivo Efficacy” (J Med Chem, 2018)

Experiments:
[1] = molecular target: DNA (cytosine-5)-methyltransferase 1 (Homo sapiens, UniProt P26358); experiment: Inhibition of human DNMT1 using polydeoxyinosine polydeoxycytosine DNA as substrate after 15 mins in presence of SAM by TR-FRET assay
[2] = molecular target: T1, Histone-lysine N-methyltransferase EHMT2 (Homo sapiens, UniProt Q96KQ7); experiment: Inhibition of human G9a using biotinylated-H3K9 peptide as substrate after 1 hr in presence of SAM by TR-FRET assay
T1 sequence (Q96KQ7 whole entry): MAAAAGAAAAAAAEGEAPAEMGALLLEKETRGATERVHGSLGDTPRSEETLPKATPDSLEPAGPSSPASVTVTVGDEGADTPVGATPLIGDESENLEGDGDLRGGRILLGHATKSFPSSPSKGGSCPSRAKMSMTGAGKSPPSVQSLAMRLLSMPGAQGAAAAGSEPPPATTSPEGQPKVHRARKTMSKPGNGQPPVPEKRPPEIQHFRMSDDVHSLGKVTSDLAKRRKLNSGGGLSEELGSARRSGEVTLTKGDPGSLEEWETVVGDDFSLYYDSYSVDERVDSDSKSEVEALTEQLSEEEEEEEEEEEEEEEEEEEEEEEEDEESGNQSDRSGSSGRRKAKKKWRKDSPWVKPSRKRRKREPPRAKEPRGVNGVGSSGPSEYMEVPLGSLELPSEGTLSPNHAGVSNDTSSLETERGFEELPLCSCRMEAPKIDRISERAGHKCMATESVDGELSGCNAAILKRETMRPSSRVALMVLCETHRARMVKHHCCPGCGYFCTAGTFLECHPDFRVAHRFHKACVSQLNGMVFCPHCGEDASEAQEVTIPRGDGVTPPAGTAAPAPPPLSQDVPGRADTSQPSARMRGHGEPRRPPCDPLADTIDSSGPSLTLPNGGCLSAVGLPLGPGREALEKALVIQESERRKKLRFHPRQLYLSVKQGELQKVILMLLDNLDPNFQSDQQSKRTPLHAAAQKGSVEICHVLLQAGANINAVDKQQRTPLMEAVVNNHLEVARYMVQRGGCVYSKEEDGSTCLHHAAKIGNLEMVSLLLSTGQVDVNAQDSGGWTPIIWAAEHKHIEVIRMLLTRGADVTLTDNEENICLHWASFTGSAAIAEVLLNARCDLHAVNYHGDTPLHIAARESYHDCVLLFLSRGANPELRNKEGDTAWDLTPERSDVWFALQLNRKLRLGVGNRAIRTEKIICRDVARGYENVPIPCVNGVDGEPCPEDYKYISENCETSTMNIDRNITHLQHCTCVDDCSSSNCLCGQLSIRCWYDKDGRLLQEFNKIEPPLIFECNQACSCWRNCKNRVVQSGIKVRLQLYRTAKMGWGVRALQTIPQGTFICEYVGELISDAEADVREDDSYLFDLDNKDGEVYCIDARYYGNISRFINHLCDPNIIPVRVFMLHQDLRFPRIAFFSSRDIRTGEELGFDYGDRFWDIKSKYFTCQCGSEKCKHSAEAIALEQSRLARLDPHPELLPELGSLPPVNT

[3] = Permeability of the compound at 50 uM after 18 hrs by PAMPA; format: ADME; details: read-out: permeability
[4] = Growth inhibition of human CEMO1 cells after 48 hrs by MTS assay; format: functional
THLE-2 = experiment: Growth inhibition of human THLE2 cells after 72 hrs by MTS assay; format: cell-based; details: thle-2, 72 h
MV4-11 = experiment: Growth inhibition of human MV4-11 cells after 48 hrs by MTS assay; format: functional; details: MV4-11, 48 h
OCI-Ly10 [5] = experiment: Growth inhibition of human OCI-LY10 cells at 1 uM after 48 hrs by MTS assay relative to control; format: functional; details: OCI-Ly10, 48 h, read-out: GI
OCI-Ly3 [6] = experiment: Growth inhibition of human OCI-LY3 cells at 1 uM after 48 hrs by MTS assay relative to control; format: functional; details: OCI-Ly3, 48 h, read-out: GI
[7] = Growth inhibition of human CEMO1 cells at 1 uM after 48 hrs by MTS assay relative to control; format: functional; details: read-out: GI
[8] = Growth inhibition of human LAL-CUN-2 cells at 1 uM after 48 hrs by MTS assay relative to control; format: functional; details: read-out: GI
[9] = Growth inhibition of human CEMO1 cells at 10 uM after 48 hrs by MTS assay relative to control; format: functional; details: read-out: GI
[10] = Growth inhibition of human LAL-CUN-2 cells after 48 hrs by MTS assay; format: functional
OCI-Ly3 [11] = experiment: Growth inhibition of human OCI-LY3 cells after 48 hrs by MTS assay; format: functional; details: OCI-Ly3, 48 h
OCI-Ly10 [12] = experiment: Growth inhibition of human OCI-LY10 cells after 48 hrs by MTS assay; format: functional; details: OCI-Ly10, 48 h

Sequence of DNA (cytosine-5)-methyltransferase 1 (P26358 whole entry): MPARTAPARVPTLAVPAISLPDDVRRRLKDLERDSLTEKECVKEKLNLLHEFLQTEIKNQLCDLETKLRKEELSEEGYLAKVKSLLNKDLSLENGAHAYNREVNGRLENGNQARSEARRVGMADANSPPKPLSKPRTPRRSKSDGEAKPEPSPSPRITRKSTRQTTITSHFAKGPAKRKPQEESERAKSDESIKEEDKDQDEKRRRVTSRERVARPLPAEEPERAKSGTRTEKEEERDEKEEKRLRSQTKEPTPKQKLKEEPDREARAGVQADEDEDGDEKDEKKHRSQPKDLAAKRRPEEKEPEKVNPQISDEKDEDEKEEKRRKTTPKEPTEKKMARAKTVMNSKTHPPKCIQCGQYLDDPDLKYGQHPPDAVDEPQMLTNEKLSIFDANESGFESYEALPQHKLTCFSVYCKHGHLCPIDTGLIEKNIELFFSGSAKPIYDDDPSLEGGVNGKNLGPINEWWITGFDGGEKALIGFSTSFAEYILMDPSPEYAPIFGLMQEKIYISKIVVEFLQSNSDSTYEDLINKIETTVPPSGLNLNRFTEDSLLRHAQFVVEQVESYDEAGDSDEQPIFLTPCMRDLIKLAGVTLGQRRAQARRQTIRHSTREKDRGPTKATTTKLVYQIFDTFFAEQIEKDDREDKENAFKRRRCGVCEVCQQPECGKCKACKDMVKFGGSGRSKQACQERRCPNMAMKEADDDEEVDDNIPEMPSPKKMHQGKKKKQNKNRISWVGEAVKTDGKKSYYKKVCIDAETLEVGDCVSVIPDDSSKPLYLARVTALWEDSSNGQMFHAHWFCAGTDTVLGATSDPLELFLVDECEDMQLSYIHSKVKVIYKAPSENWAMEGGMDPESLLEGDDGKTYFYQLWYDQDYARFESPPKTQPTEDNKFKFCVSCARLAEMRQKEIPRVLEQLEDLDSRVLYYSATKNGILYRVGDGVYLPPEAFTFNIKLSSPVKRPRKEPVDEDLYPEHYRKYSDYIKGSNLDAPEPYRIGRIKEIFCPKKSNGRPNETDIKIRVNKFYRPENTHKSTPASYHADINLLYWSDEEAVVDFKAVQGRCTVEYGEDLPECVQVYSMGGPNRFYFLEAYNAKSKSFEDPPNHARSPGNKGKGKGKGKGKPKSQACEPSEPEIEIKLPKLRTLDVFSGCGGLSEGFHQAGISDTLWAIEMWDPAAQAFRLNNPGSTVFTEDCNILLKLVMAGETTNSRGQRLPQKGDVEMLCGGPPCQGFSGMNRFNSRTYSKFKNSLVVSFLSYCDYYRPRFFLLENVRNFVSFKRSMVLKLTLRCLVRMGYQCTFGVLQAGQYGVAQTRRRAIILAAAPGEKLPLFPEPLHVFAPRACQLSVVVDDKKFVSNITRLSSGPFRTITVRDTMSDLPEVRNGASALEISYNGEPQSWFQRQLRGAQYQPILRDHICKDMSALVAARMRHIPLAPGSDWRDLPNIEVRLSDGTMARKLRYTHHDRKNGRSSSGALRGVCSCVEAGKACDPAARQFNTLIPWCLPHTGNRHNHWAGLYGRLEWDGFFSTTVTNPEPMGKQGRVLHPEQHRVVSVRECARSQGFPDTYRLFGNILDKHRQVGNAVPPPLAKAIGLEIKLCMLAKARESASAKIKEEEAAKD

Structure (SMILES)	IC50 [1] [nM]	IC50 [2] [nM]	Papp at 18 h, 50 µM [3] [×10⁻⁶ cm/s]	inhibition of growth at 1 µM [7] [%]	also measured
COc1cc2c(NC3CCN(C)CC3)cc(-c3ccc(C)s3)nc2cc1OCCCN1CCCC1	230	43	2.91		GI50 [4]: 555 nM; LC50 (THLE-2): 4060 nM; GI50 (MV4-11): 3100 nM; inhibition of growth at 1 µM (OCI-Ly10 [5]): 42%; inhibition of growth at 1 µM (OCI-Ly3 [6]): 21%
COc1cc2c(NC3CCN(C)CC3)cc(C3CCCCC3)nc2cc1OCCCN1CCCC1	497	2	1.98	20	LC50 (THLE-2): 34800 nM; GI50 (MV4-11): > 10000 nM
CCNCc1ccc(-c2cc(NC3CCN(C)CC3)c3cc(OC)c(OCCCN4CCCC4)cc3n2)o1	618	48	0.13	0	inhibition of growth at 1 µM [8]: 3%; inhibition of growth at 1 µM (OCI-Ly10 [5]): 0%; inhibition of growth at 1 µM (OCI-Ly3 [6]): 0%
COc1cc2c(NC3CCN(C)CC3)cc(-c3ccn(C)n3)nc2cc1OCCCN1CCCC1	969	44		10	inhibition of growth at 1 µM [8]: 16%; inhibition of growth at 1 µM (OCI-Ly10 [5]): 0%; inhibition of growth at 1 µM (OCI-Ly3 [6]): 16%
COc1cc2c(NC3CCN(C)CC3)cc(-c3cc[nH]c(=O)c3)nc2cc1OCCCN1CCCC1	1250	142			
COc1cc2c(NC3CCN(C)CC3)cc(N3CCN(C)CC3)nc2cc1OCCCN1CCCC1	945	42			inhibition of growth at 10 µM [9]: 14%
COc1cc2c(NC3CCNCC3)cc(-c3ccc(C)o3)nc2cc1OCCCN1CCCC1	137	6	0.2		GI50 [4]: 1980 nM; LC50 (THLE-2): 8850 nM; GI50 [10]: > 5000 nM; GI50 (OCI-Ly3 [11]): 1270 nM; GI50 (OCI-Ly10 [12]): > 4000 nM
COc1cc2c(NC3CCN(C)CC3)cc(C)nc2cc1OCCCN1CCCC1	929	6			inhibition of growth at 10 µM [9]: 14%
COc1cc2c(NC3CCN(C)CC3)cc(-c3ccc(C#N)o3)nc2cc1OCCCN1CCCC1	1600	264			
COc1cc2c(NC3CCN(C)CC3)cc(-c3cccnc3)nc2cc1OCCCN1CCCC1	1410	40	0.22	0	inhibition of growth at 1 µM [8]: 16%; inhibition of growth at 1 µM (OCI-Ly10 [5]): 17%; inhibition of growth at 1 µM (OCI-Ly3 [6]): 12%
COc1cc2c(NC3CCN(C)CC3)cc(C3CCC(C)O3)nc2cc1OCCCN1CCCC1 (configuration not stated)	1370	27			
COc1cc2c(NC3CCN(C)CC3)cc(-c3ccc(-c4ccccc4)o3)nc2cc1OCCCN1CCCC1	1050	2720			
COc1cc2c(NC3CCN(C)CC3)cc(C(F)(F)F)nc2cc1OCCCN1CCCC1	> 10000	637		24	
COc1cc2c(NC3CCN(C)CC3)cc(-c3ccc(CN(C)C)o3)nc2cc1OCCCN1CCCC1	1270	148			
COc1cc2c(NC3CCN(C)CC3)cc(C3CCOCC3)nc2cc1OCCCN1CCCC1	4420	17	0.22	20	inhibition of growth at 1 µM [8]: 6%; inhibition of growth at 1 µM (OCI-Ly10 [5]): 3%; inhibition of growth at 1 µM (OCI-Ly3 [6]): 0%
COc1cc2c(NC3CCN(C)CC3)cc(-c3ccnn3C)nc2cc1OCCCN1CCCC1	> 10000	1080	0.09		
COc1cc2c(NC3CCN(C)CC3)cc(-c3ccc(C)[nH]3)nc2cc1OCCCN1CCCC1	232	0.5			GI50 [4]: 1650 nM; inhibition of growth at 1 µM [8]: 12%; LC50 (THLE-2): 7680 nM; GI50 (OCI-Ly3 [11]): 896 nM; GI50 (OCI-Ly10 [12]): 915 nM
COc1cc2c(NC3CCN(C)CC3)nc(-c3ccc(C)o3)nc2cc1OCCCN1CCCC1	2250	336			
COc1cc(NC2CCN(C)CC2)c2cc(OC)c(OCCCN3CCCC3)cc2n1	2290	136		1	
CCc1ccc(-c2cc(NC3CCN(C(C)C)CC3)c3cc(OC)c(OCCCN4CCCC4)cc3n2)o1	284	3	3.83		GI50 [4]: 441 nM; LC50 (THLE-2): 1720 nM; GI50 (MV4-11): 971 nM
COc1cc2c(NC3CCN(C)CC3)cc(C3=CCCCC3)nc2cc1OCCCN1CCCC1	494	6	2.09		GI50 [4]: 1180 nM; LC50 (THLE-2): 7580 nM; GI50 [10]: 4290 nM
COc1cc2c(NC3CCN(C)CC3)cc(-c3cc4ccccc4o3)nc2cc1OCCCN1CCCC1	1070	3140			
COc1cc2c(NC3CCN(C)CC3)cc(-c3ccccc3)nc2cc1OCCCN1CCCC1	1050	15	1.69		GI50 [4]: 658 nM; inhibition of growth at 1 µM [8]: 7%; LC50 (THLE-2): 5620 nM; GI50 (MV4-11): 2600 nM; GI50 (OCI-Ly3 [11]): 717 nM; GI50 (OCI-Ly10 [12]): 420 nM
COc1cc2c(NC3CCN(C)CC3)cc(-c3ccc(CO)o3)nc2cc1OCCCN1CCCC1	759	15	0.05	0	inhibition of growth at 1 µM [8]: 19%; inhibition of growth at 1 µM (OCI-Ly10 [5]): 1%; inhibition of growth at 1 µM (OCI-Ly3 [6]): 26%
COc1cc2c(NC3CCN(C)CC3)cc(-c3ccccc3C)nc2cc1OCCCN1CCCC1	582	52			
CCc1ccc(-c2cc(NC3CCN(C4CC4)CC3)c3cc(OC)c(OCCCN4CCCC4)cc3n2)o1	274	24	5.56		GI50 [4]: 917 nM; LC50 (THLE-2): 703 nM; GI50 (MV4-11): 3510 nM; GI50 (OCI-Ly3 [11]): 1560 nM; GI50 (OCI-Ly10 [12]): 236 nM
COc1cc2c(NC3CCN(C)CC3)cc(C3=CCOCC3)nc2cc1OCCCN1CCCC1	957	12	0.37	8	inhibition of growth at 1 µM [8]: 0%; inhibition of growth at 1 µM (OCI-Ly10 [5]): 16%; inhibition of growth at 1 µM (OCI-Ly3 [6]): 6%
Nc1ncn([C@@H]2O[C@H](CO)[C@@H](O)[C@H]2O)c(=O)n1 [AZACITIDINE]	300				
Nc1ncn([C@H]2C[C@H](O)[C@@H](CO)O2)c(=O)n1 [DECITABINE]	30				
